From BigSolDB 2.1

Cc1ccc(S(=O)(=O)NC(=O)NN2CC3CCCC3C2)cc1 (stereo not drawn)
solubility (mole fraction)
Details	278.15 K	283.15 K	288.15 K	293.15 K	298.15 K	303.15 K	308.15 K	313.15 K	318.15 K
in DMF	0.0571	0.0629	0.0684	0.0743	0.0801	0.0866	0.0935	0.101	0.109
in THF	0.018	0.0217	0.0266	0.0318	0.0384	0.0462	0.0539	0.0635	0.076
in acetone	0.00883	0.0103	0.0121	0.0141	0.0166	0.0191	0.0219	0.0252	0.0291
in acetonitrile	0.00172	0.00211	0.00262	0.00319	0.0039	0.00473	0.00557	0.00658	0.00796
in chloroform	0.0581	0.0641	0.07	0.0773	0.0842	0.0919	0.1	0.109	0.119
in cyclohexanone	0.0112	0.0133	0.0155	0.0181	0.0209	0.0243	0.0278	0.0322	0.0371
in ethanol	0.000739	0.000911	0.00113	0.00137	0.00169	0.00203	0.00249	0.00296	0.00358
in ethyl acetate	0.00146	0.00174	0.00212	0.00248	0.00294	0.00351	0.00411	0.00477	0.00558
in ethyl formate	0.00188	0.00239	0.00297	0.00364	0.00453	0.00549	0.00673	0.0082	0.00976
in isobutanol	0.00042	0.000544	0.000709	0.000916	0.00114	0.00146	0.0018	0.00226	0.00286
in isopropanol	0.000332	0.000439	0.000579	0.000738	0.000945	0.0012	0.00151	0.00192	0.00241
in methanol	0.00122	0.00149	0.00178	0.00216	0.00257	0.00304	0.00358	0.00428	0.00497
in methyl acetate	0.00229	0.00283	0.00339	0.00418	0.00499	0.00588	0.00699	0.00838	0.00982
in n-butanol	0.000624	0.000787	0.000984	0.00123	0.00152	0.00192	0.0023	0.00286	0.00344
in n-propanol	0.000655	0.000831	0.00103	0.00129	0.00162	0.00199	0.00238	0.00291	0.0035
in sec-butanol	0.000505	0.000643	0.000834	0.00106	0.00133	0.00166	0.00205	0.00258	0.00322
in toluene	0.000307	0.000395	0.000499	0.000634	0.000789	0.000979	0.00119	0.0015	0.00181
